The values below are quoted from earlier work in PubChem BioAssay AID1259409 (Chemical Carcinogenesis Research Information System (CCRIS), 2018).

In this data set the test system is rodent chemically induced tumor inhibition, incidence and multiplicity. Nature of the data set: CCRIS tumor inhibitor studies.

SMILES strings stand for the structures.

On to `O=c1c(O)c(-c2ccc(O)c(O)c2)oc2cc(O)cc(O)c12`, for which the “tumour outcome (control, treated, inhibition, significance)” value runs as follows: (Carcinogen: 4-NITROQUINOLINE-1-OXIDE, 56-57-5, Dose [Inhibitor]: 0, 500 PPM IN DIET FOR 10 WK BEGINNING 1 WK PRIOR TO CARCINOGEN DOSE (STUDY DURATION: 32 WK), Route [Inhibitor]: ORAL, Species: RAT, Strain/Sex: F344/MALE, Target Tissue: Type of Lesion: TONGUE: CARCINOMA, Dose [Carcinogen]: 20 PPM IN DRINKING WATER FOR 8 WK, Promoter: NONE USED) 9/15 (60%), 2/16 (13%), 78%, p<0.05; (Carcinogen: 4-NITROQUINOLINE-1-OXIDE, 56-57-5, Dose [Inhibitor]: 0, 500 PPM IN DIET FOR 10 WK BEGINNING 1 WK PRIOR TO CARCINOGEN DOSE (STUDY DURATION: 32 WK), Route [Inhibitor]: ORAL, Species: RAT, Strain/Sex: F344/MALE, Target Tissue: Type of Lesion: TONGUE: PAPILLOMA, Dose [Carcinogen]: 20 PPM IN DRINKING WATER FOR 8 WK, Promoter: NONE USED) 4/15 (27%), 1/16 (6%), 78%, not significant; (Carcinogen: 4-NITROQUINOLINE-1-OXIDE, 56-57-5, Dose [Inhibitor]: 0, 500 PPM IN DIET FOR 22 WK BEGINNING 1 WK POST CARCINOGEN TREATMENT (STUDY DURATION: 32 WK), Route [Inhibitor]: ORAL, Species: RAT, Strain/Sex: F344/MALE, Target Tissue: Type of Lesion: TONGUE: CARCINOMA, Dose [Carcinogen]: 20 PPM IN DRINKING WATER FOR 8 WK, Promoter: NONE USED) 9/15 (60%), 1/15 (7%), 88%, p<0.05; (Carcinogen: 4-NITROQUINOLINE-1-OXIDE, 56-57-5, Dose [Inhibitor]: 0, 500 PPM IN DIET FOR 22 WK BEGINNING 1 WK POST CARCINOGEN TREATMENT (STUDY DURATION: 32 WK), Route [Inhibitor]: ORAL, Species: RAT, Strain/Sex: F344/MALE, Target Tissue: Type of Lesion: TONGUE: PAPILLOMA, Dose [Carcinogen]: 20 PPM IN DRINKING WATER FOR 8 WK, Promoter: NONE USED) 4/15 (27%), 1/15 (7%), 74%, not significant; (Carcinogen: 7,12-DIMETHYLBENZ[A]ANTHRACENE, 57-97-6, Dose [Inhibitor]: 0, 0.2 ML OF A 1% SOLUTION 1/D FOR 2 WK APPLIED 5 MIN POST EACH CARCINOGEN DOSE THEN 1/D FOR 4 WK DURING PROMOTION STAGE, Route [Inhibitor]: DERMAL, Species: MOUSE, Strain/Sex: SWISS/MALE, Target Tissue: Type of Lesion: SKIN: PAPILLOMA, Dose [Carcinogen]: 0.2 ML OF A 0.24% SOLUTION IN DMSO 1/D FOR 2 WK, Promoter: CROTON OIL, 8001-28-3) 23/23 (100%), 8/24 (33%), 67%, not calculated; (Carcinogen: 7,12-DIMETHYLBENZ[A]ANTHRACENE, 57-97-6, Dose [Inhibitor]: 0, 0.2 ML OF A 1% SOLUTION 1/D FOR 2 WK APPLIED 5 MIN PRIOR TO EACH CARCINOGEN DOSE (STUDY DURATION: 20 WK), Route [Inhibitor]: DERMAL, Species: MOUSE, Strain/Sex: SWISS/MALE, Target Tissue: Type of Lesion: SKIN: PAPILLOMA, Dose [Carcinogen]: 0.2 ML OF A 0.24% SOLUTION IN DMSO 1/D FOR 2 WK, Promoter: CROTON OIL, 8001-28-3) 23/23 (100%), 20/24 (83%), 17%, not calculated. Further, the “tumour outcome (control, treated, inhibition, significance)” value runs as follows: (Carcinogen: 7,12-DIMETHYLBENZ[A]ANTHRACENE, 57-97-6, Dose [Inhibitor]: 0, 3% IN DIET FOR 28 WK (STUDY DURATION: 28 WK), Route [Inhibitor]: ORAL, Species: RAT, Strain/Sex: SPRAGUE-DAWLEY/FEMALE, Target Tissue: Type of Lesion: MAMMARY GLAND: CARCINOMA, Dose [Carcinogen]: 10 MG/100 G BW ONCE) 16/21 (76%), 10/22 (46%), 39% p<0.05; (Carcinogen: 7,12-DIMETHYLBENZ[A]ANTHRACENE, 57-97-6, Dose [Inhibitor]: 1.0% IN POWDERED DIET BEGINNING 1 WK POST CARCINOGEN DOSE FOR 51 WK (STUDY DURATION: 52 WK), Route [Inhibitor]: ORAL, Species: RAT, Strain/Sex: SPRAGUE-DAWLEY/FEMALE, Target Tissue: Type of Lesion: EAR DUCT: BENIGN TUMOR, Dose [Carcinogen]: 2.5 MG/100 G BW IN 0.5 ML SESAME OIL ONCE, Promoter: NONE USED) 7/19 (37%), 4/18 (22%), 40%, not calculated; (Carcinogen: 7,12-DIMETHYLBENZ[A]ANTHRACENE, 57-97-6, Dose [Inhibitor]: 1.0% IN POWDERED DIET BEGINNING 1 WK POST CARCINOGEN DOSE FOR 51 WK (STUDY DURATION: 52 WK), Route [Inhibitor]: ORAL, Species: RAT, Strain/Sex: SPRAGUE-DAWLEY/FEMALE, Target Tissue: Type of Lesion: MAMMARY GLAND: CARCINOMA, Dose [Carcinogen]: 2.5 MG/100 G BW IN 0.5 ML SESAME OIL ONCE, Promoter: NONE USED) 6/19 (32%), 4/18 (22%), 30%, not calculated; (Carcinogen: 7,12-DIMETHYLBENZ[A]ANTHRACENE, 57-97-6, Dose [Inhibitor]: 1.0% IN POWDERED DIET BEGINNING 1 WK POST CARCINOGEN DOSE FOR 51 WK (STUDY DURATION: 52 WK), Route [Inhibitor]: ORAL, Species: RAT, Strain/Sex: SPRAGUE-DAWLEY/FEMALE, Target Tissue: Type of Lesion: MAMMARY GLAND: FIBROADENOMA, Dose [Carcinogen]: 2.5 MG/100 G BW IN 0.5 ML SESAME OIL ONCE, Promoter: NONE USED) 15/19 (79%), 8/18 (44%), 44%, not calculated; (Carcinogen: 7,12-DIMETHYLBENZ[A]ANTHRACENE, 57-97-6, Dose [Inhibitor]: 30 UMOL 2 D/WK FOR 18 WK APPLIED 30-40 MIN PRIOR TO AND CONCURRENT WITH EACH PROMOTER TREATMENT BEGINNING 10 D POST CARC, Route [Inhibitor]: DERMAL, Species: MOUSE, Strain/Sex: CD-1/FEMALE, Target Tissue: Type of Lesion: SKIN: PAPILLOMA, Dose [Carcinogen]: 200 NMOL ONCE, Promoter: 12-O-TETRADECANOYLPHORBOL-13-ACETATE, 16561-29-8) 95%, 62%, 35%, not calculated.
